Reference: patent US9872829B2, “Core sheath drug delivery devices” (Chemo Research, S.L., priority 2012, dated 2018)

Conditions: 21 days
Experimental: Etonogestrel (ETO) solubility in the hydrophilic polyurethane, Hydrothane AL 25-80A, was determined by evaluating its in-vitro elution (IVE) from core sheath IVRs containing ETO in the core at various loadings.
The core polymer was Hydrothane AL 25-80A and the sheath polymer EVA VA content 28% w/w.

SMILES: C#C[C@]1(O)CC[C@H]2[C@@H]3CCc4cc(O)ccc4[C@H]3CC[C@@]21C [EE, Ethinyl Estradiol]
- Csat in Hydrothane AL 25-80A (concentration concluded to be below Csat): > 0.25%

SMILES: C#C[C@]1(O)CC[C@H]2[C@@H]3CCC4=CC(=O)CC[C@@H]4[C@H]3C(=C)C[C@@]21CC [ETO, Etonogestrel]
- Csat in Hydrothane AL 25-80A (concentration concluded to be below Csat): > 1.00%
